Measured values reported in US20150328245A1, “Agents for Eliminating Tumour-Initiating Cells” (priority 2012, published 2015).
Where “and” joins values, the source holds several entries; their conditions need not be identical. Identical values can stand only once.

Legend:
Type in all cases: cell-based
DU145 [1] = experiment: In vitro soft agar colony forming growth assay; conditions: one week
Description: (§1) The Soft Agar Assay for Colony Formation is considered the most stringent assay for detecting malignant transformation of cells. In this assay the cells are cultured in medium with low percentage of agar.
(§2) An exemplary procedure for the assay follows.

L929 = experiment: In vitro soft agar colony forming growth assay; conditions: L929, soft agar, one week; read-out: IC 50
Description: as §1, §2

MCF-7 [2] = experiment: In vitro soft agar colony forming growth assay; conditions: MCF-7, soft agar, one week
Description: as §1, §2

LNCaP [3] = experiment: In vitro soft agar colony forming growth assay; conditions: one week
Description: as §1, §2

PC3 [4] = experiment: In vitro soft agar colony forming growth assay; conditions: one week
Description: as §1, §2

HeLa = experiment: In vitro soft agar colony forming growth assay; conditions: soft agar, one week, read-out: IC 50
Description: as §1, §2

T47D [5] = experiment: In vitro soft agar colony forming growth assay; conditions: one week
Description: as §1, §2

[6] = tested on: prostate cancer cells PC3; experiment: In vitro 3D primary sphere forming stem cell assay
Description: (§3) This assay measures the ability of cancer stem cells to form spheres in a serum free media where the spheres are in a suspended form. Through this assay we evaluated the potency of the compounds of the invention to kill cancer stem cells in comparison with the known chemotherapeutic agent Cisplatin.
(§4) An exemplary procedure for the assay follows. Cells were grown in three dimensions on a plastic substrate, harvested in suspension in serum-free media, then the cells in the sample were trypsinized and a single cell suspension was formed by passing through a cell strainer. The cells were diluted according to the predetermined plating efficiency for the cell line being studied by suspending the cells in stem cell culture medium. 100 uL of this suspension was added into each well of a 96 well suspension plate, and the plate was incubated at 37 degrees Celsius in 5% CO2 atmosphere for 24 hours, then 2 uL of appropriate concentrations of the compounds of the invention and cisplatin were added into each respective well along with 100 uL of stem cell culture medium, and the plates were incubated at 37 degrees Celsius under 5% CO2 atmosphere for 72 hours. 2.5 uL of the compounds of the invention and cisplatin were added to each respective well along with 50 uL of stem cell culture medium and then the plates were incubated at 37 degrees Celsius under 5% CO2 atmosphere for 72 hours. 3 uL of appropriate concentrations of the compounds of the invention and cisplatin were added to each respective well along with 50 uL of stem cell culture medium and then the plates were incubated at 37 degrees Celsius under 5% CO2 atmosphere for 72 hours, then the spheres formed were observed under a microscope then counted and scored by size.
(§5) Results of the in vitro 3D sphere forming stem cell assay are set forth in a tabular manner. The number in each box is the total number of spheres formed in the presence of either cisplatin or compound I-2 or compound I-3 at each drug concentration. GC refers to a growth control performed in the absence of drug or solvent (DMSO). GCD refers to a growth control performed in the absence of drug, but in the presence of DMSO.

[7] = tested on: prostate cancer cells DU145; experiment: In vitro 3D primary sphere forming stem cell assay
Description: as §3, §4, §5

breast cancer cells T47D = experiment: In vitro 3D primary sphere forming stem cell assay
Description: as §3, §4, §5

[8] = tested on: breast cancer cells MCF-7; experiment: In vitro 3D primary sphere forming stem cell assay
Description: as §3, §4, §5

[9] = tested on: prostate cancer cells LNCaP; experiment: In vitro 3D primary sphere forming stem cell assay
Description: as §3, §4, §5

[10] = tested on: breast cancer cells MDA MB 231; experiment: In vitro 3D primary sphere forming stem cell assay
Description: as §3, §4, §5

DU145 [11] = experiment: In vitro colorimetric cell death assay (MTT); conditions: DU145, MTT, 48 hours; read-out: IC 50
Description: (§6) It's an in vitro colorimetric assay for assessing cell viability where the cells are grown in Two-dimensional surface.
(§7) An exemplary procedure for the assay follows. Cancer cells and normal cells were plated in a 96 well plate as per predetermined plating efficiency. The plate was incubated for 24 hours in a 5% CO2 atmosphere at 37 degrees Celsius, a range of concentrations of the compounds I-1, I-2 and I-3 as well as cisplatin (known chemotherapeutic agents) were added to the separate wells, the plate was incubated further for 48 hours in a 5% CO2 atmosphere, the plate was centrifuged twice at 3000 rpm for 3 minutes, the supernatant fluid was discarded, 100 uL of 0.5 mg/mL MTT solution was added and the plate was incubated for 4 hours in a 5% CO2 atmosphere at 37 degrees Celsius. The plate was then centrifuged twice at 3000 rpm for 3 minutes, supernatant, was aspirated very carefully, 200 uL DMSO was added to each well to solubilize MTT crystals and mixed well by shaking the plate, the plate was incubated for 10 minutes in a 5% CO2 atmosphere at 37 degrees Celsius, the plate placed on the shaker of an ELISA plate reader and the absorbance at 570 nm was measured, then the percentage of viable cells remaining was calculated by first subtracting the background absorbance then comparing to the absorbance of a non-drug-treated cell sample, and the results were plotted on a graph to determine the IC50 for the compounds and cisplatin.

MCF-7 [12] = experiment: In vitro colorimetric cell death assay (MTT); conditions: MCF-7, MTT, 48 hours
Description: as §6, §7

MDAMB231 = experiment: In vitro colorimetric cell death assay (MTT); conditions: 48 hours
Description: as §6, §7

LNCaP [13] = experiment: In vitro colorimetric cell death assay (MTT); conditions: 48 hours
Description: as §6, §7

[14] = tested on: MCF10A (normal breast cell line); experiment: In vitro colorimetric cell death assay (MTT); conditions: 48 hours, read-out: IC 50
Description: as §6, §7

PC3 [15] = experiment: In vitro colorimetric cell death assay (MTT); conditions: 48 hours
Description: as §6, §7

L 929 = experiment: In vitro colorimetric cell death assay (MTT); conditions: L 929, MTT, 48 hours; read-out: IC 50
Description: as §6, §7

T47D [16] = experiment: In vitro colorimetric cell death assay (MTT); conditions: 48 hours
Description: as §6, §7

For N.N.[Cl][Pt][Cl] [Cisplatin, cisplatin, reference compound], the IC50 (DU145 [1]) was 56.2 µM, the IC50 (L929) was 8.7 µM and the IC50 (MCF-7 [2]) was 37.1 µM. It also gave an IC50 (LNCaP [3]) of 64.6 µM, an IC50 (PC3 [4]) of 40.1 µM and an IC50 (HeLa) of 39.4 µM. For the same molecule, the IC50 (T47D [5]) was 51.3 µM, the “# of 3D Primary Spheres Formed of Cells PC3 (±SD)” value ([6]; final conc. 0.125 μM) was 125(±7) and the “# of 3D Primary Spheres Formed of Cells PC3 (±SD)” value ([6]; final conc. 1.25 μM) was 109(±12). For the same molecule, the “# of 3D Primary Spheres Formed of Cells PC3 (±SD)” value ([6]; final conc. 12.5 μM) was 80(±6), the “# of 3D Primary Spheres Formed of Cells PC3 (±SD)” value ([6]; final conc. 125 μM) was 67(±5) and the “# of 3D Primary Spheres Formed of Cells PC3 (±SD)” value ([6]; final conc. 1250 μM) was 55(±5). For the same molecule, the “# of 3D Primary Spheres Formed of Cells DU145 (±SD)” value ([7]; final conc. 0.125 μM) was 84(±4), the “# of 3D Primary Spheres Formed of Cells DU145 (±SD)” value ([7]; final conc. 1.25 μM) was 70(±7) and the “# of 3D Primary Spheres Formed of Cells DU145 (±SD)” value ([7]; final conc. 12.5 μM) was 48(±6). For the same molecule, the “# of 3D Primary Spheres Formed of Cells DU145 (±SD)” value ([7]; final conc. 125 μM) was 35(±4), the “# of 3D Primary Spheres Formed of Cells DU145 (±SD)” value ([7]; final conc. 1250 μM) was 11(±3) and the “# of 3D Primary Spheres Formed of Cells T47D (±SD)” value (breast cancer cells T47D; final conc. 0.125 μM) was 105(±10). The “# of 3D Primary Spheres Formed of Cells T47D (±SD)” value (breast cancer cells T47D; final conc. 1.25 μM) was 100(±7), the “# of 3D Primary Spheres Formed of Cells T47D (±SD)” value (breast cancer cells T47D; final conc. 12.5 μM) was 76(±25) and the “# of 3D Primary Spheres Formed of Cells T47D (±SD)” value (breast cancer cells T47D; final conc. 125 μM) was 51(±5). For the same molecule, the “# of 3D Primary Spheres Formed of Cells T47D (±SD)” value (breast cancer cells T47D; final conc. 1250 μM) was 0(±0), the “# of 3D Primary Spheres Formed of Cells MCF-7 (±SD)” value ([8]; final conc. 0.125 μM) was 76(±5) and the “# of 3D Primary Spheres Formed of Cells MCF-7 (±SD)” value ([8]; final conc. 1.25 μM) was 77(±5). The “# of 3D Primary Spheres Formed of Cells MCF-7 (±SD)” value ([8]; final conc. 12.5 μM) was 68(±7), the “# of 3D Primary Spheres Formed of Cells MCF-7 (±SD)” value ([8]; final conc. 125 μM) was 61(±7) and the “# of 3D Primary Spheres Formed of Cells MCF-7 (±SD)” value ([8]; final conc. 1250 μM) was 37(±8). For the same molecule, the “# of 3D Primary Spheres Formed of Cells LNCaP (±SD)” value ([9]; final conc. 0.125 μM) was 142(±12), the “# of 3D Primary Spheres Formed of Cells LNCaP (±SD)” value ([9]; final conc. 1.25 μM) was 144(±8) and the “# of 3D Primary Spheres Formed of Cells LNCaP (±SD)” value ([9]; final conc. 12.5 μM) was 108(±10). The “# of 3D Primary Spheres Formed of Cells LNCaP (±SD)” value ([9]; final conc. 125 μM) was 54(±7), the “# of 3D Primary Spheres Formed of Cells LNCaP (±SD)” value ([9]; final conc. 1250 μM) was 9(±2) and the “# of 3D Primary Spheres Formed of Cells MDA MB231 (±SD)” value ([10]; final conc. 0.125 μM) was 124(±7) and 87(±5). For the same molecule, the “# of 3D Primary Spheres Formed of Cells MDA MB231 (±SD)” value ([10]; final conc. 1.25 μM) was 113(±11) and 79(±2), the “# of 3D Primary Spheres Formed of Cells MDA MB231 (±SD)” value ([10]; final conc. 12.5 μM) was 112(±18) and 78(±5) and the IC50 (DU145 [11]) was 56.2 µM. The IC50 (MCF-7 [12]) was 4.75 µM, the IC50 (MDAMB231) was 82.3 µM and the IC50 (LNCaP [13]) was 64.6 µM. It also gave an IC50 [14] of 36.3 µM, an IC50 (PC3 [15]) of 40.1 µM and an IC50 (L 929) of 46.7 µM. For the same molecule, the IC50 (T47D [16]) was 51.3 µM.
